Assay results taken from ChEMBL document CHEMBL1201862, “PubChem BioAssay data set” (2004).
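All cell lines were grown in 96-well plates and treated with compound for 48 hours. GI50 = concentration required for 50% inhibition of growth.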 Activity calls are given as the source filed them. Rule as the data show it: active = GI50 up to about 1.1 µM and inactive = higher.

Legend:
Assay in all cases: NCI-60 cell line screen, 48 h
SNB-78 = system: SNB-78
RXF 631 = system: RXF 631
KM-20L2 = system: KM-20L2
M19-MEL = system: M19-MEL
NCI/ADR-RES = system: NCI/ADR-RES
DU-145 = system: DU-145
MDA-MB-231 = system: MDA-MB-231
MDA-N = system: MDA-N
MDA-MB-435 = system: MDA-MB-435

SMILES | GI50 (SNB-78) | GI50 (RXF 631) | GI50 (KM-20L2) | GI50 (M19-MEL) | GI50 (NCI/ADR-RES) | GI50 (DU-145) | GI50 (MDA-MB-231) | GI50 (MDA-N) | GI50 (MDA-MB-435)
CC(SC1=CC(=O)c2c(O)ccc(O)c2C1=O)C(=O)O (configuration not stated) | > 47.4 µM (inactive) | 56.4 µM (inactive) | > 51.8 µM (inactive) | – | – | – | – | – | –
COc1ccc(C(c2ccc(C(C)C)cc(=O)c2O)c2c(O)cc3oc(-c4ccccc4)cc(=O)c3c2O)cc1 (configuration not stated) | 20.8 µM (inactive) | 11.3 µM (inactive) | 9.82 µM (inactive) | 7.33 µM (inactive) | – | – | – | – | –
Cc1nc2ccc(C(F)(F)F)cc2nc1Nc1ccc(Cl)c(Cl)c1 | 14.7 µM (inactive) | 7.41 µM (inactive) | 4.11 µM (inactive) | 12.1 µM (inactive) | – | – | – | – | –
C[C@H]1COC(c2ccccn2)=N1 | > 100 µM (inactive) | – | > 100 µM (inactive) | > 100 µM (inactive) | > 100 µM (inactive) | – | – | – | –
CC1=C(C(=O)Nc2ccccc2C)C(c2ccc(Cl)c(Cl)c2)C(C(=O)Nc2ccccc2C)=C(C)N1 | 29.4 µM (inactive) | 19.8 µM (inactive) | 16.1 µM (inactive) | 19.7 µM (inactive) | – | – | – | – | –
CC12CCC3C(CCC4=CC(O)CCC43C=O)C1(O)CCC2c1ccc(=O)oc1 (configuration not stated) | 0.0075 µM (active) | – | 0.00832 µM (active) | 0.0128 µM (active) | 0.0253 µM (active) | – | – | – | –
NCCCCNCCCNC(=O)c1nc(-c2nc(CCN)sc2Cl)sc1Cl | > 100 µM (inactive) | – | > 100 µM (inactive) | > 100 µM (inactive) | – | – | – | – | –
Cc1cc(O)nc(NNC(C#N)c2ccc(O)cc2)n1 (configuration not stated) | 83.8 µM (inactive) | – | > 100 µM (inactive) | > 100 µM (inactive) | – | – | – | – | –
CC1=N/C(=C/c2ccc3c(c2)OCO3)C(=O)O1 | > 100 µM (inactive) | > 100 µM (inactive) | > 100 µM (inactive) | > 100 µM (inactive) | – | – | – | – | –
CCNCCCCNCC | > 3750 µM (inactive) | – | > 2090 µM (inactive) | > 2930 µM (inactive) | > 3750 µM (inactive) | – | – | – | –
CC(=O)NC(CCCNC(=O)N(C)N=O)C(=O)NCc1ccccc1 (configuration not stated) | > 100 µM (inactive) | > 100 µM (inactive) | > 100 µM (inactive) | > 100 µM (inactive) | – | – | – | – | –
C#C[C@H](CCCC)OC(=O)N[C@H](C)c1ccccc1 | 70 µM (inactive) | 62.1 µM (inactive) | 66.5 µM (inactive) | 30.5 µM (inactive) | – | – | – | – | –
COC(=O)/C=c1\s/c(=C\C(=O)OC)c2ccccc12 | > 100 µM (inactive) | > 100 µM (inactive) | > 100 µM (inactive) | > 100 µM (inactive) | – | – | – | – | –
CC(=O)C1CC(C)=CCC12C(=O)Nc1ccccc12 (configuration not stated) | – | > 100 µM (inactive) | > 100 µM (inactive) | – | – | – | – | – | –
COc1ccc2oc(-c3cccnc3)cc(=O)c2c1 | – | 52.7 µM (inactive) | – | > 100 µM (inactive) | – | – | – | – | –
CC1=NN(c2ccccc2)C(=O)C12[C@H](c1ccccc1)C2(C#N)C#N (some centres not stated) | 13.8 µM (inactive) | – | 11.8 µM (inactive) | 2.51 µM (inactive) | – | – | – | – | –
COC(=O)C#CC(N)=O | > 100 µM (inactive) | > 100 µM (inactive) | > 31.6 µM (inactive) | > 64.3 µM (inactive) | – | – | – | – | –
CC1OC(n2cc(F)c(=O)[nH]c2=O)CCC1O (configuration not stated) | > 100 µM (inactive) | – | 95.1 µM (inactive) | > 100 µM (inactive) | > 100 µM (inactive) | > 77.6 µM (inactive) | > 100 µM (inactive) | 91.2 µM (inactive) | > 100 µM (inactive)
NC(Cc1cc(I)c(O)c(I)c1)C(=O)O (configuration not stated) | > 500 µM (inactive) | – | > 500 µM (inactive) | > 323 µM (inactive) | > 316 µM (inactive) | – | – | – | –
COc1cc(/C=C2/C(=O)NC(Cc3cc(OC)c(OC)c(C)c3OC)C(=O)N2Cc2ccccc2)c(OC)c(C)c1OC (configuration not stated) | – | 90.2 µM (inactive) | 95.9 µM (inactive) | 47.4 µM (inactive) | – | – | – | – | –
CN[C@@H](C)[C@@H](NC)c1ccccc1 | > 100 µM (inactive) | > 100 µM (inactive) | – | > 100 µM (inactive) | – | – | – | – | –
CC(=O)OC(C)C(=O)C1c2cccc(O)c2C(=O)c2c(O)cc(C)cc21 (configuration not stated) | 0.753 µM (active) | – | 1.37 µM (inactive) | 0.367 µM (active) | – | – | – | – | –
CC(=O)Nc1cccc2[nH]c3ccccc3c(=O)c12 | – | 27 µM (inactive) | 21.1 µM (inactive) | 21.8 µM (inactive) | – | – | – | – | –
[N-]=[N+]=CC(=O)CCC(NC(=O)C(CCC(=O)C=[N+]=[N-])NC(=O)CCC(N)C(=O)O)C(=O)O (configuration not stated) | > 100 µM (inactive) | – | > 100 µM (inactive) | > 100 µM (inactive) | > 100 µM (inactive) | – | – | – | –
COc1ccc2c(c1)O[C@H]1c3ccc(O)cc3OC[C@@H]21 | 29.2 µM (inactive) | 31.8 µM (inactive) | 31.6 µM (inactive) | 18 µM (inactive) | – | – | – | – | –
